Data: article PMC9684503 (Communications Biology, 2022)
Several values for one entry are separate records, joined by “and”; a condition that tells them apart may be missing. Equal values may be shown once. Where a name gives a salt, the structure may show the parent alone.

Assays:
rat VMAT2-His = target: T1, rat VMAT2-His (Rattus norvegicus, UniProt Q01827); test: Differential scanning fluorimetry (DSF) with CPM dye: change of melting temperature of purified VMAT2; format: binding
T1 construct: The ORF of rat VMAT2 was subcloned into a pFastBac vector; His; made in house; host or cells: Sf9 insect cells (baculovirus)
T1 sequence (Q01827 whole entry): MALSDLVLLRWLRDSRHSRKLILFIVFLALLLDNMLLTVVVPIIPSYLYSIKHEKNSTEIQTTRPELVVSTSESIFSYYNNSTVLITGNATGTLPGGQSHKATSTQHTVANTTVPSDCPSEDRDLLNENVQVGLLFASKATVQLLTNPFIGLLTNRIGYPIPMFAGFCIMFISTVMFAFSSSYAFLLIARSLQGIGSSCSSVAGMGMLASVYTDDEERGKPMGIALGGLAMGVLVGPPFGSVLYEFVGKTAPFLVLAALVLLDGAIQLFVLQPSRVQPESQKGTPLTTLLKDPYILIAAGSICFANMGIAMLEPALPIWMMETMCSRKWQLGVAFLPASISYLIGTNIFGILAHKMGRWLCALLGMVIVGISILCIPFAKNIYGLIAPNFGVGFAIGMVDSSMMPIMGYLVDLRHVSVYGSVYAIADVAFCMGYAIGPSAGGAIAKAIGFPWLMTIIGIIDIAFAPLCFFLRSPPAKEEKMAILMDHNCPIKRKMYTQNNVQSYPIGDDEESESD
Method: To screen purified VMAT2 by DSF we expressed the rat VMAT2 protein, as VMAT2-His, in SF9 insect cells using the baculovirus expression system. The transporter was solubilized and purified in n-Dodecyl-β-D-maltoside (DDM)/cholesterol hemisuccinate (CHS) micelles by immobilized metal affinity chromatography (IMAC) and size exclusion chromatography (SEC). […] Screening was performed using DSF and the thiol-reactive dye 7-diethylamino-3-(4-maleimidophenyl)-4-methylcoumarin (CPM), an approach that monitors changes to the protein melting temperature (Tm) upon compound binding. Using CPM or other dyes, DSF-based assays have successfully been used in molecular-based screenings[34],[35]. […] DSF screening was performed in 384 well plates using the thiol-sensing dye 7-diethylamino-3-(4-maleimidophenyl)-4-methylcoumarin (CPM) (Merck). […] Protein melting curves were determined using a LightCycler 480 ii RT-PCR system (Roche), with a temperature ramp increasing from 25 to 95 °C at a rate of 2 °C/min. Data analysis was performed using an in-house software that automatically determines the protein midpoint melting temperature (Tm) based on the second derivative of the melting curves or using the HTSDSF explorer as described in ref. [58]. […] 6 μl of this mix was dispensed to each well of 384 well plates using a Multidrop™ Combi Reagent Dispenser (Thermo Scientific). […] All initial hits were then subjected to an initial validation in triplicates with a compound concentration of 200 μM and a ΔTm > 5× the standard deviation (SD) cut off. […] Processing of the data from the primary screening and the concentration-dependent validation was performed as reported.

VMAT2 [1] = target: T2, VMAT2 (Rattus norvegicus, UniProt Q01827); conditions: hek293 cells, 50 µM
T2 sequence (Q01827 whole entry): as above
Method: (§1) We preincubated cells expressing VMAT2 with 50 μM compounds and measured [^3H]-DTBZ binding (5 nM) to the sample (Fig. 3a). […] Hek293 cells were grown and transfected with pcDNA3.1 VMAT2-His as described above. Two days after transfection, cells were harvested, washed and transferred to 96 well MultiScreen FB filter plates (Millipore). […] Cells were washed 3 times with ice cold PBS and 50 µl Ultima Gold LLL (PerkinElmer) was added to each well. […] After a 20 min incubation at 37 °C, cells were washed and [^3H] scintillation counting was performed as described above.

rat VMAT2 = rat VMAT2 (Rattus norvegicus, UniProt Q01827); test: FFN206 uptake assay in transfected Hek293 cells
Sequence of rat VMAT2 (Q01827 whole entry): as above

VMAT2 [2] = target: T2, VMAT2; test: [3H]-DTBZ competition assay in Hek293 cells expressing VMAT2; conditions: 50 μM compound;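 also: HEK293 cells transfected with VMAT2, pretreated 30 min with compound, then given 5 nM [3H]-DTBZ for 20 min at 37 °C, bound label read by scintillation counting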
Method: as §1

[3] = Table 1, DSF screening, mean ± SD of triplicates

COc1ccccc1OCCNCC(O)COc1cccc2[nH]c3ccccc3c12 (centres unmarked) [Carvedilol]
ΔTm (rat VMAT2-His; [3]): −2.54 ± 0.19 oC | activity (VMAT2 [1]): 3.22 ± 3.37% | IC50 (rat VMAT2): 185 ± 157 nM | FFN206 uptake relative to no compound (=1), replicate samples (rat VMAT2; Fig. 2b/2c source data, compound 0.0152 μM, listed as Carvediol): 0.766 and 0.8971 and 0.7075 and 0.9947 | FFN206 uptake relative to no compound (=1), replicate samples (rat VMAT2; Fig. 2b/2c source data, compound 0.1372 μM, listed as Carvediol): 0.4929 and 0.5853 and 0.5773 and 0.7378 | FFN206 uptake relative to no compound (=1), replicate samples (rat VMAT2; Fig. 2b/2c source data, compound 0.4115 μM, listed as Carvediol): 0.3687 and 0.2376 and 0.3168 and 0.3398 | FFN206 uptake relative to no compound (=1), replicate samples (rat VMAT2; Fig. 2b/2c source data, compound 1.2346 μM, listed as Carvediol): 0.1087 and 0.07344 | FFN206 uptake relative to no compound (=1), replicate samples (rat VMAT2; Fig. 2b/2c source data, compound 3.7037 μM, listed as Carvediol): 0.1063 and 0.05759 and 0.1334 and 0.2157 | FFN206 uptake relative to no compound (=1), replicate samples (rat VMAT2; Fig. 2b/2c source data, compound 11.1111 μM, listed as Carvediol): 0.1084 and -0.01428 and 0.1171 and 0.3099 | FFN206 uptake relative to no compound (=1), replicate samples (rat VMAT2; Fig. 2b/2c source data, compound 100.0000 μM, listed as Carvediol): -0.01159 and -0.1032 and -0.03855 | FFN206 uptake relative to no compound (=1), replicate samples (rat VMAT2; Fig. 2c source data, compound 0.0017 μM, listed as Carvediol): 0.7452 and 0.9945 and 0.9725 and 0.9441 | effect on [3H]-DTBZ binding compared with DMSO control (one-way ANOVA, p < 0.001) (VMAT2 [2]): statistically significantly effect

CC(C)NCC(O)c1ccc2ccccc2c1 (centres unmarked) [Pronethalol, Pronethalol hydrochloride]
ΔTm (rat VMAT2-His; 10 µM): 0,71 oC | ΔTm (rat VMAT2-His; 11 µM): 0,70 oC | ΔTm (rat VMAT2-His; 12 µM): -0,02 oC | ΔTm (rat VMAT2-His; 30 µM): 1,83 oC | ΔTm (rat VMAT2-His; 33 µM): 0,48 oC | ΔTm (rat VMAT2-His; 37 µM): 0,21 oC | ΔTm (rat VMAT2-His; 90 µM): 2,42 oC | ΔTm (rat VMAT2-His; 270 µM): 3,75 oC | IC50 (rat VMAT2): 1010 ± 300 nM

CCc1cc2c(cc1CC)CC(NC[C@H](O)c1ccc(O)c3[nH]c(=O)ccc13)C2 [Indacaterol]
ΔTm (rat VMAT2-His; [3]): −1.26 ± 0.15 oC | activity (VMAT2 [1]): 31.6 ± 4.76% | IC50 (rat VMAT2): 372 ± 195 nM | FFN206 uptake relative to no compound (=1), replicate samples (rat VMAT2; Fig. 2b/2c source data, compound 0.0152 μM, listed as Indacterol): 1.046 and 0.9873 and 0.9954 and 1.047 | FFN206 uptake relative to no compound (=1), replicate samples (rat VMAT2; Fig. 2b/2c source data, compound 0.1372 μM, listed as Indacterol): 0.9052 and 0.9503 and 0.5975 and 0.7395 | FFN206 uptake relative to no compound (=1), replicate samples (rat VMAT2; Fig. 2b/2c source data, compound 0.4115 μM, listed as Indacterol): 0.655 and 0.7802 and 0.5475 and 0.5896 | FFN206 uptake relative to no compound (=1), replicate samples (rat VMAT2; Fig. 2b/2c source data, compound 1.2346 μM, listed as Indacterol): 0.389 and 0.3824 and 0.2984 and 0.2513 | FFN206 uptake relative to no compound (=1), replicate samples (rat VMAT2; Fig. 2b/2c source data, compound 3.7037 μM, listed as Indacterol): 0.2198 and 0.2721 and 0.1271 and 0.01615 | FFN206 uptake relative to no compound (=1), replicate samples (rat VMAT2; Fig. 2b/2c source data, compound 11.1111 μM, listed as Indacterol): 0.3236 and 0.15 and 0.08791 and -0.0508 | FFN206 uptake relative to no compound (=1), replicate samples (rat VMAT2; Fig. 2b/2c source data, compound 100.0000 μM, listed as Indacterol): 0.1623 and 0.1126 and 0.06583 and 0.01394 | FFN206 uptake relative to no compound (=1), replicate samples (rat VMAT2; Fig. 2c source data, compound 0.0017 μM, listed as Indacterol): 0.9404 and 1.104 and 0.8827 and 0.8866 | effect on [3H]-DTBZ binding compared with DMSO control (one-way ANOVA, p < 0.001) (VMAT2 [2]): statistically significantly effect

CC(C)NCC(O)COc1ccc(CCOCC2CC2)cc1 (centres unmarked) [Betaxolol, Betaxolol hydrochloride]
ΔTm (rat VMAT2-His; [3]): 1.98 ± 0.15 oC | ΔTm at 12 µM (rat VMAT2-His; Table S2 dose response, compound 0,12 µM, read-out: ΔTm): -0.32 °C | ΔTm at 37 µM (rat VMAT2-His; Table S2 dose response, compound 0,37 µM, read-out: ΔTm): -0.34 °C | ΔTm at 10 µM (rat VMAT2-His; Table S2 dose response, compound 10 µM, read-out: ΔTm): 0.12 °C | ΔTm at 30 µM (rat VMAT2-His; Table S2 dose response, compound 30 µM, read-out: ΔTm): 0.01 °C | ΔTm at 90 µM (rat VMAT2-His; Table S2 dose response, compound 90 µM, read-out: ΔTm): 0.2 °C | ΔTm at 270 µM (rat VMAT2-His; Table S2 dose response, compound 270 µM, read-out: ΔTm): 1.16 °C | ΔTm at 11 µM (rat VMAT2-His; Table S2 dose response, compound 1,11 µM, read-out: ΔTm): 0.01 °C | ΔTm at 33 µM (rat VMAT2-His; Table S2 dose response, compound 3,33 µM, read-out: ΔTm): 0.01 °C | IC50 (rat VMAT2): 6850 ± 3620 nM

OCc1cc([C@@H](O)CNCCCCCCOCCOCc2c(Cl)cccc2Cl)ccc1O [Vilanterol]
IC50 (rat VMAT2): 47 ± 14 nM | FFN206 uptake relative to no compound (=1), replicate samples (rat VMAT2; Fig. 2b/2c source data, compound 0.0152 μM): 0.9388 and 0.9839 and 0.9625 and 0.9806 | FFN206 uptake relative to no compound (=1), replicate samples (rat VMAT2; Fig. 2b/2c source data, compound 0.1372 μM): 0.349 and 0.2794 and 0.2127 and 0.5464 | FFN206 uptake relative to no compound (=1), replicate samples (rat VMAT2; Fig. 2b/2c source data, compound 0.4115 μM): 0.2586 and 0.1616 and 0.1258 and 0.3046 | FFN206 uptake relative to no compound (=1), replicate samples (rat VMAT2; Fig. 2b/2c source data, compound 1.2346 μM): 0.2328 and 0.1144 and 0.1141 and 0.2682 | FFN206 uptake relative to no compound (=1), replicate samples (rat VMAT2; Fig. 2b/2c source data, compound 3.7037 μM): 0.255 and 0.1011 and 0.07806 and 0.2392 | FFN206 uptake relative to no compound (=1), replicate samples (rat VMAT2; Fig. 2b/2c source data, compound 11.1111 μM): 0.2251 and 0.08176 and 0.1003 and 0.2777 | FFN206 uptake relative to no compound (=1), replicate samples (rat VMAT2; Fig. 2c source data, compound 0.0017 μM): 1.315 and 1.032 and 1.041 and 1.083

COc1ccc(CC(C)(C)NC[C@H](O)c2cc(O)cc3c2OCC(=O)N3)cc1 [Olodaterol]
ΔTm (rat VMAT2-His; [3]): 1.09 ± 0.08 oC | activity (VMAT2 [1]): 95.6 ± 18.6% | IC50 (rat VMAT2): 4750 ± 1360 nM | FFN206 uptake relative to no compound (=1), replicate samples (rat VMAT2; Fig. 2b/2c source data, compound 0.0152 μM, listed as Oldaterol): 1.037 and 1.016 and 1.038 and 1.078 | FFN206 uptake relative to no compound (=1), replicate samples (rat VMAT2; Fig. 2b/2c source data, compound 0.1372 μM, listed as Oldaterol): 1.061 and 1.023 and 1.068 and 1.18 | FFN206 uptake relative to no compound (=1), replicate samples (rat VMAT2; Fig. 2b/2c source data, compound 0.4115 μM, listed as Oldaterol): 0.9896 and 1.059 and 0.9994 and 0.9917 | FFN206 uptake relative to no compound (=1), replicate samples (rat VMAT2; Fig. 2b/2c source data, compound 1.2346 μM, listed as Oldaterol): 0.8954 and 0.9111 and 0.8127 and 1.136 | FFN206 uptake relative to no compound (=1), replicate samples (rat VMAT2; Fig. 2b/2c source data, compound 3.7037 μM, listed as Oldaterol): 0.4411 and 0.5591 and 0.475 and 0.4566 | FFN206 uptake relative to no compound (=1), replicate samples (rat VMAT2; Fig. 2b/2c source data, compound 11.1111 μM, listed as Oldaterol): 0.3412 and 0.3104 and 0.1707 and 0.3679 | FFN206 uptake relative to no compound (=1), replicate samples (rat VMAT2; Fig. 2b/2c source data, compound 100.0000 μM, listed as Oldaterol): 0.0752 and 0.06166 and -0.04341 and -0.00625 | FFN206 uptake relative to no compound (=1), replicate samples (rat VMAT2; Fig. 2c source data, compound 0.0017 μM, listed as Oldaterol): 1.069 and 1.105 and 1.094 and 1.258 | effect on [3H]-DTBZ binding compared with DMSO control (one-way ANOVA, p < 0.001) (VMAT2 [2]): no statistically significant effect

CC(C)(C)NCC(O)c1cc(Cl)c(N)c(Cl)c1 (centres unmarked) [Clenbuterol]
ΔTm (rat VMAT2-His; [3]): 2.19 ± 0.13 oC | IC50 (rat VMAT2): > 10000 nM
